Converted amounts (≈) assume the structure as drawn.
Conditions: for aqueous solubility: pH 6.8

| Compound | MDR1-MDCK efflux ratio | intrinsic clearance, human liver microsomes [mL/min/kg] | intrinsic clearance, rat liver microsomes [mL/min/kg] | aqueous solubility [µg/mL] | fraction unbound, human plasma | fraction unbound, rat plasma |
| --- | --- | --- | --- | --- | --- | --- |
| Cc1cc(C)n2nc(C)c(C(=O)NCCc3nnc(C)s3)c2n1 | 6.5 | ≤ 4.74 | 33.1 |  |  |  |
| CCS(=O)(=O)Nc1ccc(Oc2ccc(F)cc2F)c(-c2cn(C)c(=O)c3[nH]ccc23)c1 | 51.2 | ≤ 4.74 | 14.9 | 16.9 (≈ 36.7 µM) |  |  |
| Cc1ccc(CCNC(=O)N2CC(C)(C)OC(C)(C)C2)cn1 | 22.9 | 6.58 | 76.4 | 41.1 (≈ 135 µM) |  |  |
| Cc1nccc(C2(C)CCN(CC(N)=O)CC2)n1 | 2.82 | ≤ 4.74 | ≤ 10.7 | 59.8 (≈ 241 µM) |  |  |
| NCCCC[C@H](N[C@@H](CCc1ccccc1)C(=O)O)C(=O)N1CCC[C@H]1C(=O)O |  |  |  |  |  | 1 |
| COc1ccc(CNC(=O)c2cc(-c3cncc(C)c3)ncc2-c2nccs2)nc1OC | 9.82 | 17.7 | 125 | 9.86 (≈ 22 µM) |  |  |
| Cc1sc2ncnc(OCC(=O)Nc3ccc4c(c3)OCO4)c2c1C | 0.986 |  |  | 0.26 (≈ 0.727 µM) |  |  |
| Cc1nn(Cc2cccc(Br)c2)c(C)c1C(=O)O | 1.58 | ≤ 4.74 | ≤ 10.7 | 51.4 (≈ 166 µM) |  |  |
| Fc1cccc(CCNCc2cc(-c3ccccc3)cn3nnnc23)c1 | 0.71 | 190 | 1720 | 13.7 (≈ 39.5 µM) |  |  |
| CN1CCN(C(=O)C2(NC(=O)c3cc(Cl)c4c(c3)OCO4)CCCC2)CC1 |  | ≤ 4.74 | 37.7 | 79 (≈ 201 µM) |  |  |
| Cc1sc(NC(=O)CN2CCOC(C3CCCO3)C2)c(C)c1C (centres undefined) | 1 | 12.8 | 185 | 60.9 (≈ 180 µM) |  |  |
| O=C(Nc1ccn(Cc2ccc(O)cc2C(F)(F)F)n1)c1c(F)cccc1F | 2.23 | 16.7 | 438 | 43.5 (≈ 109 µM) |  |  |
| CCOC(=O)N1CCN(C(=O)c2ccc3c(c2)OCO3)CC1 | 0.82 | ≤ 4.74 | 112 | 53 (≈ 173 µM) |  |  |
| NC1(c2nc(-c3ccsc3)no2)CCCCC1 |  | ≤ 4.74 | 447 |  |  |  |
| Cc1cc(NC(=O)c2c(F)cccc2Cl)no1 |  | ≤ 4.74 | 26 |  |  |  |
| Cc1nc(Cl)cc(Nc2cnn(C(C)(C)C)c2)n1 | 0.684 | ≤ 4.74 | 21.4 | 22.6 (≈ 85 µM) |  |  |

| Compound | MDR1-MDCK efflux ratio | intrinsic clearance, human liver microsomes [mL/min/kg] | intrinsic clearance, rat liver microsomes [mL/min/kg] | aqueous solubility [µg/mL] | fraction unbound, human plasma | fraction unbound, rat plasma |
| --- | --- | --- | --- | --- | --- | --- |
| Cc1nc(C)c2c(C)c(C(=O)N(C)Cc3ccc(C)o3)sc2n1 | 1.1 | 36 | 2890 | 37.5 (≈ 114 µM) |  |  |
| COC(C)(C)C(=O)Nc1ccnc(C(C)(C)C)n1 | 0.599 | 10.9 | 106 |  |  |  |
| O=C(CN1CCOC(c2ccc(F)cc2)C1)Nc1ccccc1OC(F)F (centres undefined) | 0.589 | 93.6 | 566 | 23.1 (≈ 60.7 µM) |  |  |
| Cn1cc(Br)cc1C(=O)N1CCc2nn[nH]c2C1 |  | ≤ 4.74 | 43.8 |  |  |  |
| Cn1nccc1C(=O)C1CCN(C(=O)c2cccs2)CC1 |  | 12.2 | 97.5 |  |  |  |
| Cc1cc(C)cc(C(=O)NCCCNc2ncccn2)c1 |  |  |  | 52.5 (≈ 185 µM) |  |  |
| CS(=O)(=O)N1CCN(Cc2cc3c(cc2O)OCO3)CC1 |  | 28.6 | 278 |  |  |  |
| CN(C)C(=O)CN1CCN(C(=O)c2ccc3ccccc3c2O)CC1 | 2.35 | ≤ 4.74 | ≤ 10.7 | 43.9 (≈ 129 µM) |  |  |
| C[C@@H]1CN(C(=O)CC(c2ccccc2)c2ccccc2)C[C@H](C)O1 | 1.31 | 36.4 | 1900 | 52.3 (≈ 162 µM) | 0.154 | 0.0523 |
| Cc1cnc(-n2cnnc2)c(-c2cccc(Cl)c2Cl)c1 | 2.25 | 6.9 | 165 | 18.6 (≈ 61 µM) |  |  |
| Cc1ccccc1S(=O)(=O)Nc1c(C)ccnc1Cl | 0.795 | ≤ 4.74 | 194 |  |  |  |
| Cc1cc(N(C)C)nc(N(C)Cc2csc(C)n2)n1 | 0.632 | 30.6 | 681 | 47.4 (≈ 171 µM) |  |  |
| CN(C)S(=O)(=O)N(C1CCCC1)C1CC1 |  |  |  | 32.6 (≈ 140 µM) |  |  |
| Cc1nc(N2CCc3c(ncn3C)C2)c2c(C)c(C)sc2n1 | 1.94 | 94.2 | 655 | 47.5 (≈ 152 µM) |  |  |
| CCONC(=O)c1sc(C)nc1C | 0.788 | ≤ 4.74 | ≤ 10.7 | 29 (≈ 145 µM) |  |  |
| Cc1nc(C2CCN(CC(N)=O)CC2)no1 |  | ≤ 4.74 | ≤ 10.7 | 61.4 (≈ 274 µM) |  |  |

More lines, now with the values ahead:

| MDR1-MDCK efflux ratio | intrinsic clearance, human liver microsomes [mL/min/kg] | intrinsic clearance, rat liver microsomes [mL/min/kg] | aqueous solubility [µg/mL] | fraction unbound, human plasma | fraction unbound, rat plasma | Compound |
| --- | --- | --- | --- | --- | --- | --- |
| 0.492 |  |  | 0.22 (≈ 0.711 µM) |  |  | CN(C(=O)c1cc2ccc(C(C)(C)C)cc2[nH]1)C1(C#N)CCC1 |
| 22 | 16.2 | 329 | 28.6 (≈ 60.8 µM) | 0.014 | 0.00619 | C=CC(=O)Nc1cccc(Oc2nc(Nc3ccc(N4CCN(C)CC4)cc3)nc3ccoc23)c1 |
| 31.7 | ≤ 4.74 | ≤ 10.7 |  |  |  | O=C(NCC1(N2CCCCC2)CCCC1)c1cnn[nH]1 |
| 1.11 | 10.7 | 805 | 52.1 (≈ 167 µM) |  |  | N#CC1(C(=O)N2CCN(Cc3ccccn3)CC2)CCCCC1 |
| 0.658 |  |  | 0.68 (≈ 1.89 µM) |  |  | Cn1cc(-c2ccnc(/C=C/c3ccc(F)cc3Br)n2)cn1 |
| 0.764 | 64.8 | 1090 | 11.4 (≈ 33.7 µM) |  |  | Cc1ccc(CN(C)C(=O)c2cn(Cc3ccccc3F)nn2)cc1 |
| 0.913 |  |  | 0.22 (≈ 0.711 µM) |  |  | N#Cc1cc2c(nc1SCc1cccnc1)CCCCCC2 |
| 0.68 | 25.8 | 711 |  |  |  | O=c1c2cccnc2ncn1Cc1ccc2c(c1)CCCC2 |
|  | 10.7 | 52.2 |  |  |  | Cc1noc(Cc2ccc(C)c(O)c2)n1 |
| 5.4 | 150 | 1220 | 7.05 (≈ 15.2 µM) |  |  | COc1cc2c(cc1OC)CN(C(=O)C1CCCN(S(=O)(=O)c3ccc(F)cc3)C1)CC2 (centres undefined) |
|  | 203 | 1540 |  |  |  | Cc1cccc(C)c1NCc1noc(C2CC2)n1 |
| 23.2 | ≤ 4.74 | ≤ 10.7 | 45.3 (≈ 160 µM) |  |  | Cc1ccc(C(=O)Nc2cccc(C(=O)N(C)C)c2)cn1 |
| 0.559 | 237 | 556 |  |  |  | CCOc1cccc(-c2cccc(N)n2)c1 |
| 26.9 | 205 | 867 |  |  |  | O=C([C@@H]1CCCN1C(=O)NC(c1ccccc1)c1ccccc1)N1CCCCC1 |
| 29.1 | 20.8 | 90.9 |  |  |  | CC(=O)NCC(=O)N1[C@@H]2CC[C@H]1c1ccc(Nc3ncc(C(F)(F)F)c(NC4CCC4)n3)cc12 |
| 2.84 | ≤ 4.74 | 36.7 |  |  |  | Cc1cc(Cn2cnc(C#N)c2C#N)c2ccccc2n1 |
| 3.67 | 9.64 | 192 | 47.4 (≈ 147 µM) |  |  | CS(=O)(=O)CCNC(=O)N1CC2(CCCC2)c2ccccc21 |
|  | ≤ 4.74 | 245 |  |  |  | Cc1cnc(CNC2(c3nccs3)CCCC2)cn1 |
|  |  |  | 41.5 (≈ 207 µM) |  |  | N#CCn1c(C(=O)O)cc2ccccc21 |
| 0.513 | 10.8 | 70.4 | 33.3 (≈ 134 µM) | 0.0213 | 0.0497 | Cc1c(Cl)ccc2cc3n(c12)[C@@H](C)CNC3=O |
| 20 | 42.7 | 1560 |  | 0.00041 | 0.00313 | CC(C)NC(=O)COc1cccc(-c2nc(Nc3ccc4[nH]ncc4c3)c3ccccc3n2)c1 |
| 1.45 | 35.4 | 500 | 40.4 (≈ 145 µM) |  |  | Cc1nccc(-c2cccc(-n3ccnc3C(C)C)c2)n1 |
| 2.49 | ≤ 4.74 | ≤ 10.7 |  |  |  | O=c1oc2cccnc2n1Cc1ccccn1 |
| 66.1 | 36.5 | 651 | 54.5 (≈ 161 µM) |  |  | Cc1ccc2c(CC(=O)N(C)Cc3nnc4n3CCC4)coc2c1C |
|  | 68.9 | 747 | 63.1 (≈ 194 µM) |  |  | O=C(NCCCn1ccnc1)N1CC2(CCCC2)c2ccccc21 |
|  | 767 | 4910 | 24.7 (≈ 57.4 µM) |  |  | O=C(c1cccs1)N1CCCC(C(=O)N2Cc3ccccc3C(c3ccccc3)C2)C1 (centres undefined) |

From the Biogen ADME set (Fang et al. 2023)
